Data set [1] concerns ARH77 multiple myeloma cells. As to the kind of experiment: MTT cytotoxicity assay of oxovanadium(IV) compounds, ARH77. The class given is cell-based, human. The following applies: 48 hr. As for the experimental part:
The cytotoxicity of oxovanadium (W) complexes listed in Table 6 were tested against 9 different human cancer cell lines was performed using the MTT (3-[4,5-dimethylthiazol-2-yl]-2,5-diphenyl tetrazolium bromide) assay (Boehringer Mannheim Corp., Indianapolis, Ind.) as described previously (20). […] Triplicate wells were used for each treatment. To each well, 10 μl of MTT (0.5 mg/ml final concentration) was added and the plates were incubated at 37° C. for 4 hours to allow MTT to form formazan crystals by reacting with metabolically active cells . The formazan crystals were solubilized overnight at 37° C. in a solution containing 10% SDS in 0.01 M HCl. The absorbence of each well was measured in a microplate reader (Labsystems) at 540 nm and a reference wavelength of 690 nm. To translate the OD540 values into the number of live cells in each well, the OD540 values were compared to those on standard OD540—versus—cell number curves generated for each cell line. The percent survival was calculated using the formula: % survival=Live cell number[test]/Live cell number [control]×100. The IC50 values were calculated by non-linear regression analysis using an Graphpad Prism software version 2.0 (Graphpad Software, Inc., San Diego, Calif.).
A general note: Formazan colour is commonly taken as a measure of viable cells.

The test system of data set [2] is NALM-6 cells. As to the kind of experiment: In situ detection of apoptosis, confocal microscopy, NALM-6. The class given is cell-based, human. The following applies: 48 hours after treatment. Here is the method:
(§1) Exponentially growing cells were seeded in 6-well tissue culture plates and incubated with fresh medium containing compounds. […] The cells were fixed in 2% paraformaldehyde, washed with PBS and pelleted by centrifuging the tubes at 1000 rpm for 5 min. Cells pellets were resuspended in 50 μl of PBS, transferred to superforst plus slides and allowed to attach for 15 min. The cells were permeabilized with 0.1% triton X-100 in 0.1% citrate buffer and incubated for 1 hr at 37° C. with the reaction mixture containing terminal deoxynucleotidyl transferase (TdT) and fluorescein isothiocyanate (FITC)-conjugated dUTP. Cells were washed with PBS to remove unbound reagents and the coverslips were mounted onto slides with Vectashield containing propidium iodide (Vector Labs, Burlingame, Calif.) and slides were viewed with a confocal laser scanning microscope. […] In control reactions, the TdT enzyme was omitted from the reaction mixture.

The next data set relates to HL-60 cells. Nature of the data set: MTT cytotoxicity assay of oxovanadium(IV) compounds, HL-60. The class given is cell-based, human. The following applies: 48 hr. As for the experimental part:
(§2) The cytotoxicity of oxovanadium (W) complexes listed in Table 6 were tested against 9 different human cancer cell lines was performed using the MTT (3-[4,5-dimethylthiazol-2-yl]-2,5-diphenyl tetrazolium bromide) assay (Boehringer Mannheim Corp., Indianapolis, Ind.) as described previously (20). Briefly, exponentially growing tumor cells were seeded into a 96-well plate at a density of 4×10^4cells/well and incubated with medium containing the oxovanadium(IV) compounds concentrations ranging from 0.1 to 250 μM for 48 hours at 37° C. in a humidified 5% CO2 atmosphere. Triplicate wells were used for each treatment. To each well, 10 μl of MTT (0.5 mg/ml final concentration) was added and the plates were incubated at 37° C. for 4 hours to allow MTT to form formazan crystals by reacting with metabolically active cells . The formazan crystals were solubilized overnight at 37° C. in a solution containing 10% SDS in 0.01 M HCl. The absorbence of each well was measured in a microplate reader (Labsystems) at 540 nm and a reference wavelength of 690 nm. To translate the OD540 values into the number of live cells in each well, the OD540 values were compared to those on standard OD540—versus—cell number curves generated for each cell line. The percent survival was calculated using the formula: % survival=Live cell number[test]/Live cell number [control]×100. The IC50 values were calculated by non-linear regression analysis using an Graphpad Prism software version 2.0 (Graphpad Software, Inc., San Diego, Calif.).

Data set [3] has as its system NTD1 testicular cancer cells. Nature of the data set: Cytotoxic activity of oxovanadium(IV) compounds, NTD1. The following applies: read-out: Cytotoxic Activity NTD1. The class given is cell-based, human. Here is the method:
as §2

The test system of data set [4] is 833-K testicular cancer cells. Nature of the data set: Cytotoxic activity of oxovanadium(IV) compounds, 833-K. The following applies: read-out: Cytotoxic Activity 833-K. The class given is cell-based, human. Here is the method: as §2
Data set [5] relates to U266BL multiple myeloma cells. Nature of the data set: MTT cytotoxicity assay of oxovanadium(IV) compounds, U266BL. The class given is cell-based, human. The following applies: 48 hr. As for the experimental part:
as §2

Data set [6] concerns Tera-2 testicular cancer cells. As to the kind of experiment: Cytotoxic activity of oxovanadium(IV) compounds, TERA-2. The class given is cell-based, human. The following applies: read-out: Cytotoxic Activity TERA-2. As for the experimental part:
as §2

In data set [7] the test system is PC3 prostate cancer cells. Nature of the data set: Cytotoxic activity of oxovanadium(IV) compounds, PC3. The class given is cell-based, human. The following applies: read-out: Cytotoxic Activity PC3. Here is the method:
as §2

Data set [8] deals with NALM-6 cells. As to the kind of experiment: MTT cytotoxicity assay of oxovanadium(IV) compounds, NALM-6. The class given is cell-based, human. The following applies: 48 hr. As for the experimental part:
as §2

The subject of the next data set is U373 glioblastoma cells. Nature of the data set: Cytotoxic activity of oxovanadium(IV) compounds, U373. The following applies: read-out: Cytotoxic Activity U373. The class given is cell-based, human. As for the experimental part: as §2
Data set [9] has as its system HS-SULTAN multiple myeloma cells. Nature of the data set: MTT cytotoxicity assay of oxovanadium(IV) compounds, HS-SULTAN. The class given is cell-based, human. The following applies: 48 hr. Here is the method: as §2
Data set [10] relates to HS445 Hodgkin's lymphoma cells. As to the kind of experiment: MTT cytotoxicity assay of oxovanadium(IV) compounds, HS445. The class given is cell-based, human. The following applies: 48 hr. As for the experimental part: as §2
The test system of the next data set is BT20 breast cancer cells. As to the kind of experiment: Cytotoxic activity of oxovanadium(IV) compounds, BT20. The class given is cell-based, human. The following applies: read-out: Cytotoxic Activity BT20. As for the experimental part: as §2
Another data set deals with MOLT-3 cells. Nature of the data set: MTT cytotoxicity assay of oxovanadium(IV) compounds, MOLT-3. The following applies: 48 hr. The class given is cell-based, human. Here is the method:
as §2

Data set [11] has as its system 64cp5 testicular cancer cells. Nature of the data set: Cytotoxic activity of oxovanadium(IV) compounds, 64cp5. The class given is cell-based, human. The following applies: read-out: Cytotoxic Activity 64cp5. Here is the method:
as §2

Another data set deals with HS-SULTAN cells. Nature of the data set: In situ detection of apoptosis, confocal microscopy, HS-SULTAN. The class given is cell-based, human. The following applies: 48 hours after treatment. Here is the method:
as §1

The test system of data set [12] is Tera-2 and Ntera-2 human testicular cancer cell lines. Nature of the data set: MTT cytotoxicity assay, text statements for both testicular cancer cell lines. The following applies: Tera-2 and Ntera-2, tested side-by-side, up to 250 μM; read-out: IC50 (cytotoxicity, two testicular cancer cell lines). The class given is cell-based.
Procedure: Human testicular cancer cell lines, Tera-2 (embryonal carcinoma) and Ntera-2 (pluripotent embryonal carcinoma) were obtained from the American Type Culture Collection (ATCC) (Rockeville, Md.) and propagated in T-25, T-75, or T-150 cm^2 tissue culture flasks (Corning Corp., Corning, N.Y.) in McCoy's 5A medium and Dulbecco's modified Eagle's medium respectively. Both media were supplemented with 10% fetal calf serum (FCS), 4 mM glutamine, 100 U/ml penicillin G, and 100 mg/ml streptomycin sulfate. All tissue culture reagents were obtained from Life Technologies Inc. (GIBCO-BRL), Gaithersburg, Md. Cell lines were cultivated for a minimum of two passages after thawing prior to experimentation.
MTT (3-[4,5-dimethyl thiazol-2-yl]-2,5-diphenyltetrazolium bromide)-based colorimetric assays were used for evaluation of the cytotoxicity of vanadocene compounds. […] Briefly, cells were harvested with 0.125% (w/v) trypsin-0.02% EDTA (GIBCO-BRL) from exponential-phase maintenance cultures and centrifuged (300 g×5 min). After suspension and counting, cells were dispensed within triplicate 96-well tissue culture plates in 100 μl volumes. […] After an overnight incubation at 37° C., the optical densities at 540 nm were measured using a 96-well multiscanner autoreader, with the solubilization buffer serving as blank. All assays were run in triplicate and results were expressed as IC50 values.
The test system of data set [13] is Tera-2 testicular cancer cells. As to the kind of experiment: MTT cytotoxicity assay of vanadocenes, TERA-2 cells. The class given is cell-based, human. The following applies: 24 h, 1.9-250 μM. The gist of the method:
(§3)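 IC50 values come from MTT colorimetry (540 nm) after 24 h drug treatment at 1.9–250 μM in two-fold steps, started 24 h post-seeding. Formazan formed over 4 h at 37 °C and was solubilized overnight in 10% SDS/0.1% HCl; triplicate wells, 0.25% DMSO solvent control.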

Data set [14] concerns Ntera-2 testicular cancer cells. Nature of the data set: MTT cytotoxicity assay of vanadocenes, NTERA-2 cells. The following applies: 24 h, 1.9-250 μM. The class given is cell-based, human. The gist of the method: as §3

“(diaqua)(4,7-dimethyl-1,10-phenanthroline)oxovanadium(IV) sulfate [Compound 28]”: the IC50 in data set [1] was found to be 8.1 ± 1.6 µM; with HL-60 cells, 6.2 ± 2.3 µM; in data set [3], 12.8 µM; in data set [4], 6 µM; in data set [5], 1.3 ± 0.1 µM; in data set [6], 57.6 µM. The IC50 in data set [7] stood at 5.8 µM; with NALM-6 cells [8], 0.78 ± 0.1 µM; with U373 glioblastoma cells it was 2.2 µM; in data set [9] it was 5.1 ± 1.02 µM; in data set [10], 3.3 ± 1.4 µM; with BT20 breast cancer cells, 2.1 µM. The values for the IC50 (in the data set with MOLT-3 cells; in data set [11]) were 1.37 ± 0.07 µM and 15.2 µM, respectively. For the same compound, the “apoptotic nuclei (FITC-dUTP / propidium iodide), NALM-6” value in the data set with NALM-6 cells [2] is “many apoptotic yellow nuclei”. In addition, the “apoptotic nuclei (FITC-dUTP / propidium iodide), HS-SULTAN” value with HS-SULTAN cells is listed as “many apoptotic yellow nuclei”.

For the compound `O=S(=O)([O-])[O-].[O]=[V+2]` [VDSO4, vanadyl(IV) sulfate, reference compound], the IC50 in data set [12], in [13] and in data set [14] was above 250 µM throughout.

The record behind these values is patent US7091351B2, “Vanadium compounds for treating cancer” (Parker Hughes Institute, priority 1998, dated 2006).
